Results: patent US6087355A, “Cephalosporin antibiotics” (Microcide Pharmaceuticals, Inc., priority 1996, dated 2000)
Values after ≈ are worked out from the molar mass of the structure shown.

Experiments:
E. faecium VanA(Van^R) = assay: In vitro MIC, agar dilution; type: cell-based; details: Enterococcus faecium, read-out: minimum inhibitory concentration (MIC)
In short: (§1)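 Agar dilution, Mueller-Hinton; drug 128 → ≤0.25 μg/mL two-fold, duplicates. Inoculum ~10^4 cfu/spot (log phase). 35-36 °C, 16-20 h. MIC = lowest conc. with no growth.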

P. aeruginosa ATCC 27853 = assay: In vitro MIC, agar dilution; type: cell-based; details: Pseudomonas aeruginosa, ATCC27853, read-out: minimum inhibitory concentration (MIC)
In short: as §1

[1] = system: S. aureus 76(Meth^R)(lac^+); assay: In vitro MIC, agar dilution; type: cell-based; details: Staphylococcus aureus, read-out: minimum inhibitory concentration (MIC)
In short: as §1

[2] = system: S. aureus ATCC 13709(Meth^S); assay: In vitro MIC, agar dilution; type: cell-based; details: Staphylococcus aureus, ATCC13709, S. aureus ATCC 13709(Meth^S); read-out: minimum inhibitory concentration (MIC)
In short: as §1

[3] = system: S. aureus ATCC 33593(Meth^R); assay: In vitro MIC, agar dilution; type: cell-based; details: Staphylococcus aureus, ATCC33593, read-out: minimum inhibitory concentration (MIC)
In short: as §1

[4] = system: S. aureus Spain #356(Meth^R); assay: In vitro MIC, agar dilution; type: cell-based; details: Staphylococcus aureus, read-out: minimum inhibitory concentration (MIC)
In short: as §1

[5] = system: S. aureus Col(Meth^R)(lac^-); assay: In vitro MIC, agar dilution; type: cell-based; details: Staphylococcus aureus, read-out: minimum inhibitory concentration (MIC)
In short: (§2)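 Two-fold dilutions (128 to ≤0.25 μg/mL, in duplicate) were poured into Mueller-Hinton agar. Log-phase broth cultures were spot-inoculated at about 10^4 cfu per spot and incubated 35-36°C for 16-20 hours; the MIC was the lowest concentration inhibiting growth. Col is a high-level PBP2a producer; Col 8A is its isogenic PBP2a-lacking partner.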

[6] = system: S. aureus Col8A(Meth^S)(lac^-); assay: In vitro MIC, agar dilution; type: cell-based; details: Staphylococcus aureus; S. aureus Col8A(Meth^S)(lac^-); read-out: minimum inhibitory concentration (MIC)
In short: as §2

[7] = system: S. aureus strain ATCC 13709 (methicillin-susceptible); assay: Murine model for lethal bacteremic peritonitis; type: in vivo, female Swiss-Webster mice; details: Staphylococcus aureus, ATCC13709, SC, 72 h
In short: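 Female Swiss-Webster mice were challenged IP with an LD100 inoculum in 7% hog gastric mucin, then given test drug subcutaneously in twofold increments (0.01–512 mg/kg) as two equal doses at challenge and 2 h later, 10 mice per group. Survival was scored at 72 h; PD50 (total mg/kg) was derived by probit.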

MRSA strains = details: in words, reported in background; cited from earlier work

Q: With C[C@@H](O)[C@H]1C(=O)N2C(C(=O)O)=C(SCCN=CN)C[C@H]12 [Imipenem, imipenem, reference compound] as the compound, how does the MIC (E. faecium VanA(Van^R)) read?
A: Its MIC is 4 mg/L (≈ 13.4 µM).

Q: And the MIC (P. aeruginosa ATCC 27853)?
A: Its MIC is 1 mg/L (≈ 3.34 µM).

Q: And the MIC [1]?
A: The MIC was 32 mg/L (≈ 107 µM).

Q: And the MIC [2]?
A: Its MIC is at most 0.25 mg/L.

Q: And the MIC [3]?
A: Its MIC is 32 mg/L (≈ 107 µM).

Q: And the MIC [4]?
A: The MIC was 32 mg/L (≈ 107 µM).

Q: What about the MIC [5] of the same compound?
A: The MIC was 32 mg/L (≈ 107 µM).

Q: And the MIC [6]?
A: The MIC was at most 0.25 mg/L.

Q: And the responders at 0.039 mg/kg ([7]; Dose 0.039 mg/kg, read-out: Survivors)?
A: Its responders at 0.039 mg/kg is 30%.

Q: And the responders at 0.078 mg/kg ([7]; Dose 0.078 mg/kg, read-out: Survivors)?
A: Its responders at 0.078 mg/kg is 60%.

Q: What about the responders at 0.156 mg/kg ([7]; Dose 0.156 mg/kg, read-out: Survivors) of the same compound?
A: The responders at 0.156 mg/kg was 100%.

Q: And the responders at 0.3125 mg/kg ([7]; Dose 0.3125 mg/kg, read-out: Survivors)?
A: Its responders at 0.3125 mg/kg is 100%.

Q: What about the responders at 0.625 mg/kg ([7]; Dose 0.625 mg/kg, read-out: Survivors) of the same compound?
A: Its responders at 0.625 mg/kg is 100%.

Q: And the ED50 ([7]; two equal doses, IP challenge, read-out: ED50)?
A: Its ED50 is 0.06 mg/kg.

Q: What about the “activity against MRSA strains” value (MRSA strains) of the same compound?
A: Its value is “active against a few MRSA strains”.
